Test results taken from patent publication US20140323504A1, “Pyrazolo[4,3-c]Pyridine Derivatives As Kinase Inhibitors” (Cellzome Limited, priority 2011, published 2014).

Biological target: T1, TEC (Homo sapiens, UniProt P42680)
T1 construct: endogenous in cells; host or cells: 1:1 mix of Jurkat and Ramos cell lysates
T1 sequence (P42680 1-631): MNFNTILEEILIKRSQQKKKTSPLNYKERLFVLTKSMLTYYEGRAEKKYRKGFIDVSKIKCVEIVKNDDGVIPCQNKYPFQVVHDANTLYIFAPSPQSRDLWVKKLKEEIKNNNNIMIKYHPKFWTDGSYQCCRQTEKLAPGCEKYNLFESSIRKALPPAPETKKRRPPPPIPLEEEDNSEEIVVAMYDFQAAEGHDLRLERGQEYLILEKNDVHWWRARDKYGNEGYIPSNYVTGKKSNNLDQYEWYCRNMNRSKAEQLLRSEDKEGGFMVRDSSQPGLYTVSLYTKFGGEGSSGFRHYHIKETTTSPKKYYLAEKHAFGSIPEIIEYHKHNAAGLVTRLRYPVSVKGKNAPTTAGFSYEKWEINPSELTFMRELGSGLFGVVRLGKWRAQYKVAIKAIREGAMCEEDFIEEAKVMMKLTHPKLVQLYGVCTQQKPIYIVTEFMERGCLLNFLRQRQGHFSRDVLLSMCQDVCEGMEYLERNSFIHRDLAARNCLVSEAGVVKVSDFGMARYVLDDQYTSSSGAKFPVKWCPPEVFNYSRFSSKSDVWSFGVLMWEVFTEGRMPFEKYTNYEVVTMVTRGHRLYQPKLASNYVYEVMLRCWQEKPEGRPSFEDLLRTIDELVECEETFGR
Test: Kinobeads assay with quantitative mass spectrometry, TEC
Assay type: binding
Conditions: Jurkat/Ramos lysate, read-out: TEC inhibition value (IC50)
Experimental: Selected compounds of the present invention as described in the previous examples were tested in a Kinobeads™ assay as described (WO-A 2006/134056; Bantscheff et al., 2007. Nature Bioteclmol. 25, 1035-1044).
Compounds were incubated with cell lysate aliquots (1:1 mix of Jurkat and Ramos cell lysates) for 45 minutes at 4° C. and allowed to bind to the proteins in the lysate sample. Then the Kinobeads™ affinity matrix was added to capture proteins that were not interacting with the previously added compound. After this two hour incubation step at 4° C. beads were separated from the lysate and bead bound proteins were eluted in SDS sample buffer and subsequently separated by SDS-Polyacrylamide gel electrophoresis. […] The TMT reagents are a set of multiplexed, amine-specific, stable isotope reagents that can label peptides in up to six different biological samples enabling simultaneous identification and quantitation of peptides. The combined samples were fractionated using reversed-phase chromatography at pH 11 and fractions were subsequently analyzed with a nano-flow liquid chromatography system coupled online to a tandem mass spectrometer (LC-MSMS) experiment followed by reporter ion quantification in the MSMS spectra (Ross et al., 2004. Mol. Cell. Proteomics 3(12):1154-1169; Dayon et al., 2008. Anal. Chem. 80(8):2921-2931; Thompson et al., 2003. Anal. Chem. 75(8):1895-1904). […]

Row | Structure (SMILES) | IC50 [nM]
1 | C=CC(=O)Nc1cccc(Cn2ncc3cnc(Nc4cnn(C)c4)nc32)c1 [Example 1, N-(3-((6-((1-Methyl-1H-pyrazol-4-yl)amino)-1H-pyrazolo[3,4-d]pyrimidin-1-yl)methyl)phenyl)acrylamide] | 12
2 | C=CC(=O)Nc1cc(Cn2ncc3cnc(Nc4cnn(C)c4)nc32)ccc1F [Example 2, […]] | 34
